Two molecules from patent US11427526B2, “Method of preparing hydroxytyrosol cinnamic acid ester with antioxidant and antibacterial activities” (XI'AN KANGYUANSHENG BIOMEDICAL TECHNOLOGY CO., LTD., priority 2020, dated 2022) can be followed below.

≈ marks a conversion by molar mass, not a printed value. Where only a bound is given, the exact number is not on record here.

The test system of one assay is carbapenem-resistant Acinetobacter baumannii CR-AB 18-183. Description: MIC by microbroth dilution, CR-AB 18-183. It is filed as cell-based. The settings on record: strain CR-AB 18-183. As to the method:
(§1) The minimal inhibitory concentrations (MIC) of the compounds were determined by microbroth dilution method with gentamicin, cefazolin sodium and ceftriaxone sodium as positive control.
(§2) The experimental strains included methicillin-resistant Gram-positive bacteria: methicillin-resistant Straphylococcus aureus MRSA 18-222, 18-575; multiple drug-resistant Gram-negative bacteria: vancomycin-resistant Enterococci VRE 18-80, 18-94, multidrug-resistant Pseudomonas aeruginosa MDR-PA 18-1774, 18-202, carbapenem-resistant Acinetobacter baumannii CR-AB 18-183, 18-560. All the experimental strains were donated by Huashan Hospital affiliated to Fudan University (Institute of antibiotics, Fudan University) and used after routine identification.
(§3) Preparation of MHB medium: 20.0 g MHB medium was added to 1 L distilled water, boiled until completely dissolved, packed in conical bottles and sterilized at 121° C. for 15 min.
(§4) The experimental strain was cultured to the logarithmic growth phase: under aseptic condition, the experimental strain was inoculated into 100 mL MHB medium and incubated in a constant temperature and humidity incubator at 37° C. for 20-22 hours.
(§5) Preparation of storage solution: weighing the sample to be tested, dissolving it with 1% DMSO solution, preparing a storage solution with a concentration of 2560 μg/mL, weighing a positive reference substance, dissolving it with aseptic distilled water, and configuring a storage solution with a concentration of 2560 μg/mL.
(§6) Preparation of bacterial suspension: under aseptic condition, the experimental strains cultured to logarithmic growth phase were adjusted to 0.5 MCF turbidity standard with MHB medium and diluted according to 1:10, and the bacterial suspension with concentration of 10^6 CFU/mL was prepared for standby.
(§7) Dilution of storage solution and inoculation of experimental strain: under aseptic condition, the storage solution was diluted to 256 μg/mL solution. Taking a sterile 96-well plate, adding 200 μL MHB medium to the 12th well, and adding 100 μL MHB medium to each well. Adding 100 μL of positive control solution to the first well, mixing well, and taking 100 μL and discard. Adding 100 μL of the compound sample solution to the second well, mixing well, and then pipetting 100 μL to the third well. After mixing, pipetting 100 μL to the fourth well, and diluting to the 11th well in the same way. Finally, 100 μL was pipetted from the 11th well and discarded. The 12th hole was the growth control without drugs. The concentration of the positive reference substance was 128 μg/mL, the concentrations of the sample solution were 128, 64, […] respectively. Then, 100 μL of the prepared bacterial suspension was added to each well, so that the final concentration of the bacterial liquid in each well was 5×10^5 CFU/mL.
(§8) Incubation: Covering the 96-well plate inoculated with the experimental strains, and incubating in a constant temperature and humidity box at 37° C. for 20-22 hours.
(In general: Dilution methods test growth across graded concentrations, often in twofold steps.)
`Cc1nnc(SCC2=C(C(=O)O)N3C(=O)[C@@H](NC(=O)Cn4cnnn4)[C@H]3SC2)s1` [Cefazolin sodium] came in with a Minimum bacteriostatic concentration of more than 128 µg/mL.
Same read-out and setting: the value for `O=C(/C=C\c1ccccc1)OCCc1ccc(O)c(O)c1` [Hydroxytyrosol cinnamic acid ester, (Z)-3,4-Dihydroxyphenethyl 3-Phenylacrylate] was more than 128 µg/mL.

A further assay concerns vancomycin-resistant Enterococci VRE 18-94. Kind of assay: MIC by microbroth dilution, VRE 18-94. It is filed as cell-based. The settings on record: strain VRE 18-94. As to the method: as §1, §2, §3, §4, §5, §6, §7, §8
Regarding `Cc1nnc(SCC2=C(C(=O)O)N3C(=O)[C@@H](NC(=O)Cn4cnnn4)[C@H]3SC2)s1` [Cefazolin sodium], the Minimum bacteriostatic concentration was more than 128 µg/mL.
The molecule `O=C(/C=C\c1ccccc1)OCCc1ccc(O)c(O)c1` [Hydroxytyrosol cinnamic acid ester, (Z)-3,4-Dihydroxyphenethyl 3-Phenylacrylate] returned a Minimum bacteriostatic concentration of more than 128 µg/mL.

A further assay concerns carbapenem-resistant Acinetobacter baumannii CR-AB 18-560. Kind of assay: MIC by microbroth dilution, CR-AB 18-560. It is filed as cell-based. As to conditions: strain CR-AB 18-560. As to the method:
as §1, §2, §3, §4, §5, §6, §7, §8
Turning to `Cc1nnc(SCC2=C(C(=O)O)N3C(=O)[C@@H](NC(=O)Cn4cnnn4)[C@H]3SC2)s1` [Cefazolin sodium], the Minimum bacteriostatic concentration is more than 128 µg/mL.
Turning to `O=C(/C=C\c1ccccc1)OCCc1ccc(O)c(O)c1` [Hydroxytyrosol cinnamic acid ester, (Z)-3,4-Dihydroxyphenethyl 3-Phenylacrylate], the Minimum bacteriostatic concentration was more than 128 µg/mL.

Test system in a further assay: not listed separately
Kind of assay: DPPH radical scavenging activity assay.
Conditions: not given
As to the method:
The antioxidant activity of the hydroxytyrosol cinnamic acid ester was measured by a DPPH radical scavenging activity assay. 2,2-Diphenyl-1-picryl hydrazyl (DPPH) is an organic compound composed of a stable organic radical. In the DPPH molecule, due to the presence of multiple electron-withdrawing —NO2 and large π bonds of the benzene ring, nitrogen free radical is stabilized. Its methanol solution is purple and has a maximum absorption peak at 517 nm. After the addition of an antioxidant, DPPH captures an electron to be paired with the free electron, and the purple fades and turns into a yellow substance. The absorption at 517 nm disappears, and the degree of fading is quantitatively related to the number of electrons it captures. Based on this principle, a spectrophotometer is used to detect the change of the absorbance of the DPPH radical and the sample solution, and the ability of the sample to provide hydrogen atoms and scavenge free radicals can be measured. measuring exact amount of 2,2-diphenyl-1-picryl hydrazyl (DPPH) and dissolving in toluene to prepare a 0.2 mmoL/L DPPH solution, stored at 0° C. in dark. Vc (positive control), hydroxytyrosol cinnamic acid ester (sample), hydroxytyrosol (control) and cinnamic acid (control). The sample solution was subjected to gradient dilution with toluene, and three sets of controls were separately dissolved in a test tube with a certain amount of toluene to prepare the same concentration gradient as the sample. Sample liquid absorbance measurement: Take 2 mL of sample solution (Table 1 Vc, B, C), add 2 mL of DPPH solution with concentration of 2×10^−4 moL/L, mix and react in the dark at room temperature for 30 min, adjust to zero with toluene, and measure at 517 nm. The absorbance Ai was simultaneously measured for the absorbance Aj of 2 mL of toluene mixed with 2 mL of the sample solution and the absorbance Ao of 2 mL of DPPH solution mixed with 2 mL of toluene (The experimental results are shown in Table 2). Clearance calculation: Clearance Rate (%)=[1−(Ai−Aj)/Ao]*100%
(In general: Loss of DPPH colour is used to gauge radical scavenging.)
On to `O=C(/C=C\c1ccccc1)OCCc1ccc(O)c(O)c1` [Hydroxytyrosol cinnamic acid ester, (Z)-3,4-Dihydroxyphenethyl 3-Phenylacrylate], for which the antioxidant activity entry was “excellent antioxidant activity”.

The assay is the same for the next values; noted with them: 1.76 ppm, n = 3.
In the case of `O=C(/C=C\c1ccccc1)OCCc1ccc(O)c(O)c1` [Hydroxytyrosol cinnamic acid ester, (Z)-3,4-Dihydroxyphenethyl 3-Phenylacrylate], the DPPH clearance rate was found to be 0.56%.

The assay is the same for the next values; noted with them: 8.80 ppm, n = 3.
Molecule `O=C(/C=C\c1ccccc1)OCCc1ccc(O)c(O)c1` [Hydroxytyrosol cinnamic acid ester, (Z)-3,4-Dihydroxyphenethyl 3-Phenylacrylate] came in with a DPPH clearance rate of 16.52%.

The same assay, now with this note: 21.12 ppm, n = 3.
Turning to `O=C(/C=C\c1ccccc1)OCCc1ccc(O)c(O)c1` [Hydroxytyrosol cinnamic acid ester, (Z)-3,4-Dihydroxyphenethyl 3-Phenylacrylate], the DPPH clearance rate is on record as 31.75%.

The assay is the same for the next values; noted with them: 42.24 ppm, n = 3.
Molecule `O=C(/C=C\c1ccccc1)OCCc1ccc(O)c(O)c1` [Hydroxytyrosol cinnamic acid ester, (Z)-3,4-Dihydroxyphenethyl 3-Phenylacrylate] had a DPPH clearance rate of 43.52%.

The assay is the same for the next values; noted with them: 79.20 ppm, n = 3.
For the molecule `O=C(/C=C\c1ccccc1)OCCc1ccc(O)c(O)c1` [Hydroxytyrosol cinnamic acid ester, (Z)-3,4-Dihydroxyphenethyl 3-Phenylacrylate], the DPPH clearance rate came to 55.11%.

Staying with this assay, now noted: 112.64 ppm, n = 3.
Regarding `O=C(/C=C\c1ccccc1)OCCc1ccc(O)c(O)c1` [Hydroxytyrosol cinnamic acid ester, (Z)-3,4-Dihydroxyphenethyl 3-Phenylacrylate], the DPPH clearance rate turned out to be 68.53%.

The same assay, now with this note: 281.60 ppm, n = 3.
Turning to `O=C(/C=C\c1ccccc1)OCCc1ccc(O)c(O)c1` [Hydroxytyrosol cinnamic acid ester, (Z)-3,4-Dihydroxyphenethyl 3-Phenylacrylate], the DPPH clearance rate is recorded as 76.22%.

The assay is the same for the next values; noted with them: 492.80 ppm, n = 3.
`O=C(/C=C\c1ccccc1)OCCc1ccc(O)c(O)c1` [Hydroxytyrosol cinnamic acid ester, (Z)-3,4-Dihydroxyphenethyl 3-Phenylacrylate]: the DPPH clearance rate was 80.95%.

The same assay, now with this note: 792.00 ppm, n = 3.
As for `O=C(/C=C\c1ccccc1)OCCc1ccc(O)c(O)c1` [Hydroxytyrosol cinnamic acid ester, (Z)-3,4-Dihydroxyphenethyl 3-Phenylacrylate], the DPPH clearance rate was determined as 84.32%.

The same assay, now with this note: 915.20 ppm, n = 3.
Consider `O=C(/C=C\c1ccccc1)OCCc1ccc(O)c(O)c1` [Hydroxytyrosol cinnamic acid ester, (Z)-3,4-Dihydroxyphenethyl 3-Phenylacrylate], for which the DPPH clearance rate turned out to be 85.03%.

The next assay concerns methicillin-resistant Straphylococcus aureus MRSA 18-222. Description: MIC by microbroth dilution, MRSA 18-222. It is filed as cell-based. The settings on record: Staphylococcus aureus; multi-drug resistant Straphylococcus aureus MRSA (text summary, strain number not given). As to the method:
as §1, §2, §3, §4, §5, §6, §7, §8
The term MIC denotes the lowest concentration found to suppress growth. The low end stands for greater potency, the high end for weaker potency. Take `O=C(/C=C\c1ccccc1)OCCc1ccc(O)c(O)c1` [Hydroxytyrosol cinnamic acid ester, (Z)-3,4-Dihydroxyphenethyl 3-Phenylacrylate]: the MIC stood at 32 µg/mL (≈ 113 µM).

Still in this assay, the particulars now being: strain MRSA 18-222.
In turn, `Cc1nnc(SCC2=C(C(=O)O)N3C(=O)[C@@H](NC(=O)Cn4cnnn4)[C@H]3SC2)s1` [Cefazolin sodium] displayed a Minimum bacteriostatic concentration of more than 128 µg/mL.
`O=C(/C=C\c1ccccc1)OCCc1ccc(O)c(O)c1` [Hydroxytyrosol cinnamic acid ester, (Z)-3,4-Dihydroxyphenethyl 3-Phenylacrylate] gave a Minimum bacteriostatic concentration of 32 µg/mL.

A further assay deals with multidrug-resistant Pseudomonas aeruginosa MDR-PA 18-174. Kind of assay: MIC by microbroth dilution, MDR-PA 18-174. It is filed as cell-based. As to conditions: multi-drug resistant Pseudomonas aeruginosa MDR-PA (text summary, strain number not given). As to the method: as §1, §2, §3, §4, §5, §6, §7, §8
Turning to `O=C(/C=C\c1ccccc1)OCCc1ccc(O)c(O)c1` [Hydroxytyrosol cinnamic acid ester, (Z)-3,4-Dihydroxyphenethyl 3-Phenylacrylate], it took 64 µg/mL (≈ 225 µM) to inhibit growth (MIC).

The same assay, now with this note: strain MDR-PA 18-174.
In the case of `Cc1nnc(SCC2=C(C(=O)O)N3C(=O)[C@@H](NC(=O)Cn4cnnn4)[C@H]3SC2)s1` [Cefazolin sodium], the Minimum bacteriostatic concentration came to 8 µg/mL.
Same read-out and setting: the value for `O=C(/C=C\c1ccccc1)OCCc1ccc(O)c(O)c1` [Hydroxytyrosol cinnamic acid ester, (Z)-3,4-Dihydroxyphenethyl 3-Phenylacrylate] was 64 µg/mL.

Another assay concerns vancomycin-resistant Enterococci VRE 18-80. Description: MIC by microbroth dilution, VRE 18-80. It is filed as cell-based. As to conditions: strain VRE 18-80. As to the method:
as §1, §2, §3, §4, §5, §6, §7, §8
In the case of `Cc1nnc(SCC2=C(C(=O)O)N3C(=O)[C@@H](NC(=O)Cn4cnnn4)[C@H]3SC2)s1` [Cefazolin sodium], the Minimum bacteriostatic concentration stood at 32 µg/mL.
`O=C(/C=C\c1ccccc1)OCCc1ccc(O)c(O)c1` [Hydroxytyrosol cinnamic acid ester, (Z)-3,4-Dihydroxyphenethyl 3-Phenylacrylate] had a Minimum bacteriostatic concentration of more than 128 µg/mL.

A further assay relates to methicillin-resistant Straphylococcus aureus MRSA 18-575. Description: MIC by microbroth dilution, MRSA 18-575. It is filed as cell-based. The settings on record: strain MRSA 18-575. As to the method: as §1, §2, §3, §4, §5, §6, §7, §8
For `Cc1nnc(SCC2=C(C(=O)O)N3C(=O)[C@@H](NC(=O)Cn4cnnn4)[C@H]3SC2)s1` [Cefazolin sodium], the Minimum bacteriostatic concentration was more than 128 µg/mL.
For `O=C(/C=C\c1ccccc1)OCCc1ccc(O)c(O)c1` [Hydroxytyrosol cinnamic acid ester, (Z)-3,4-Dihydroxyphenethyl 3-Phenylacrylate], the Minimum bacteriostatic concentration is more than 128 µg/mL.

The test system of another assay is multidrug-resistant Pseudomonas aeruginosa MDR-PA 18-202. Kind of assay: MIC by microbroth dilution, MDR-PA 18-202. It is filed as cell-based. The settings on record: strain MDR-PA 18-202. As to the method:
as §1, §2, §3, §4, §5, §6, §7, §8
With `Cc1nnc(SCC2=C(C(=O)O)N3C(=O)[C@@H](NC(=O)Cn4cnnn4)[C@H]3SC2)s1` [Cefazolin sodium], the Minimum bacteriostatic concentration was 128 µg/mL.
Still for that read-out and setting: for `O=C(/C=C\c1ccccc1)OCCc1ccc(O)c(O)c1` [Hydroxytyrosol cinnamic acid ester, (Z)-3,4-Dihydroxyphenethyl 3-Phenylacrylate] the value was more than 128 µg/mL.
